{"source": "patent US20250281424A1", "about": "(New York Blood Center, Inc, priority 2020, published 2025)", "molecular_target": "T1, human PF4 (Homo sapiens, UniProt P02776)", "T1 construct": "PF4 is a 70 amino acid, lysine-rich 7.8 kDa platelet-specific protein; made in house; host or cells: Escherichia coli BL21DE3 pLysS (pT7-7) and/or Drosophila S2 cells", "T1 sequence (P02776 32-101)": "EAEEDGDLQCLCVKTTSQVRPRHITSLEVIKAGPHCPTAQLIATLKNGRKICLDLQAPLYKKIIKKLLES", "assay": "Inhibition of PF4 tetramer formation (BS3 cross-linking, SDS-PAGE)", "type": "biochemical", "settings": "for inhibition at 1 µM: 1 μM inhibitor; for inhibition at 1 µM / inhibition at 3 µM / inhibition at 5 µM / inhibition at 10 µM: read-out: % inhibition of PF4 tetramer formation at single concentration of inhibitor; for inhibition at 3 µM: 3 μM inhibitor (column A); for inhibition at 5 µM: 5 μM inhibitor; for inhibition at 10 µM: 10 μM inhibitor (column A); for IC50: read-out: IC50 of PF4 tetramer formation inhibition", "summary_of_the_method": "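Monomer, dimer, trimer and tetramer fractions were quantified by densitometry after reducing 12% SDS-PAGE of BS3-cross-linked (0.2 mM, 30 min, room temperature) PF4. Before cross-linking, 10 μg/ml E. coli-expressed human WT PF4 in PBS was exposed to compound for 15 min at 37° C or 60 min at room temperature; controls lacked compound.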", "data": [{"smiles": "CO[C@@H](C)C(=O)C1C(=O)c2ccc(C(=O)c3ccc4c(c3)C(=O)C(C(=O)[C@H](C)OC)C4=O)cc2C1=O", "note": "(stereo partly drawn) [Example 236, 2-[(2S)-2-methoxypropanoyl]-5-{2-[(2S)-2-methoxypropanoyl]-1,3-dioxo-2,3-dihydro-1H-indene-5-carbonyl}-2,3-dihydro-1H-indene-1,3-dione]", "values": [{"measurement": "inhibition at 1 µM", "value": 20, "unit": "%"}, {"measurement": "inhibition at 3 µM", "value": 25, "unit": "%"}]}, {"smiles": "COc1ccc(NC(=O)C2C(=O)c3ccc(S(=O)(=O)c4ccc5c(c4)C(=O)C(C(=O)Nc4ccc(OC)cc4)C5=O)cc3C2=O)cc1", "note": "(stereo not drawn) [Example 35, 5,5′-sulphonylbis(1,3-dioxo-indan-2-carboxylic acid (4-methoxyphenyl)-amide)]", "values": [{"measurement": "inhibition at 5 µM", "value": 54, "unit": "%"}, {"measurement": "inhibition at 10 µM", "value": 77, "unit": "%"}, {"measurement": "IC50", "value": 2850, "unit": "nM"}]}, {"smiles": "CCOC(=O)C1(C(C)=O)C(=O)c2ccc(Oc3ccc4c(c3)C(=O)CC4=O)cc2C1=O", "note": "(stereo not drawn) [Example 6, 2-acetyl-5-(1,3-dioxo-indan-5-yloxy)-1,3-dioxo-indan-2-carboxylic acid ethyl ester]", "values": [{"measurement": "IC50", "value": 1050, "unit": "nM"}]}, {"smiles": "O=C(c1ccc2c(c1)C(=O)C(C(=O)Nc1ccc(Cl)cc1Cl)C2=O)c1ccc2c(c1)C(=O)C(C(=O)Nc1ccc(Cl)cc1Cl)C2=O", "note": "(stereo not drawn) [Example 80, N-(2,4-dichlorophenyl)-5-{2-[(2,4-dichlorophenyl)carbamoyl]-1,3-dioxo-2,3-dihydro-1H-indene-5-carbonyl}-1,3-dioxo-2,3-dihydro-1H-indene-2-carboxamide]", "values": [{"measurement": "inhibition at 5 µM", "value": 90, "unit": "%"}, {"measurement": "inhibition at 10 µM", "value": 90, "unit": "%"}]}, {"smiles": "CC(C)(C)OC(=O)N1CCCC[C@@H]1C(=O)C1C(=O)c2ccc(C(=O)c3ccc4c(c3)C(=O)C(C(=O)[C@H]3CCCCN3C(=O)OC(C)(C)C)C4=O)cc2C1=O", "note": "(stereo partly drawn) [Example 275, tert-butyl (2R)-2-(5-{2-[(2R)-1-[(tert-butoxy)carbonyl]piperidine-2-carbonyl]-1,3-dioxo-2,3-dihydro-1H-indene-5-carbonyl}-1,3-dioxo-2,3-dihydro-1H-indene-2-carbonyl)piperidine-1-carboxylate]", "values": [{"measurement": "inhibition at 1 µM", "value": 5, "unit": "%"}, {"measurement": "inhibition at 3 µM", "value": 31, "unit": "%"}, {"measurement": "IC50", "value": 3000, "unit": "nM"}]}, {"smiles": "CC(C)C(=O)NCC(=O)C1C(=O)c2ccc(S(=O)(=O)c3ccc4c(c3)C(=O)C(C(=O)CNC(=O)C(C)C)C4=O)cc2C1=O", "note": "(stereo not drawn) [Example 191, 2-methyl-N-{2-[5-({2-[2-(2-methylpropanamido)acetyl]-1,3-dioxo-2,3-dihydro-1H-inden-5-yl}sulfonyl)-1,3-dioxo-2,3-dihydro-1H-inden-2-yl]-2-oxoethyl}propanamide]", "values": [{"measurement": "inhibition at 5 µM", "value": 74, "unit": "%"}, {"measurement": "inhibition at 10 µM", "value": 79, "unit": "%"}, {"measurement": "IC50", "value": "~3000", "unit": "nM"}]}, {"smiles": "O=C(c1ccc2c(c1)C(=O)C(C(=O)CC1CCCC1)C2=O)c1ccc2c(c1)C(=O)C(C(=O)CC1CCCC1)C2=O", "note": "(stereo not drawn) [Example 141, 2-(2-cyclopentylacetyl)-5-[2-(2-cyclopentylacetyl)-1,3-dioxo-2,3-dihydro-1H-indene-5-carbonyl]-2,3-dihydro-1H-indene-1,3-dione]", "values": [{"measurement": "inhibition at 5 µM", "value": 38, "unit": "%"}, {"measurement": "inhibition at 10 µM", "value": 68, "unit": "%"}]}, {"smiles": "CC(=O)C1C(=O)c2ccc(-c3ccc4c(c3)C(=O)C(C(C)=O)C4=O)cc2C1=O", "note": "(stereo not drawn) [Example 10, 2-acetyl-5-(2-acetyl-2,3-dihydro-1,3dioxo-1h-inden-5-yl)-2,3-dihydro-1,3-dioxo-1h-indene]", "values": [{"measurement": "IC50", "value": 1350, "unit": "nM"}]}, {"smiles": "COCCOCCNCC(=O)C1C(=O)c2ccc(S(=O)(=O)c3ccc4c(c3)C(=O)C(C(=O)CNCCOCCOC)C4=O)cc2C1=O", "note": "(stereo not drawn) [Example 397, 2-(2-{[2-(2-methoxyethoxy)ethyl]amino}acetyl)-5-{[2-(2-{[2-(2-methoxyethoxy)ethyl]amino}acetyl)-1,3-dioxo-2,3-dihydro-1H-inden-5-yl]sulfonyl}-2,3-dihydro-1H-indene-1,3-dione]", "values": [{"measurement": "inhibition at 1 µM", "value": 2, "unit": "%"}, {"measurement": "inhibition at 3 µM", "value": 9, "unit": "%"}]}, {"smiles": "CC(C)(C)OC(=O)N1CCSC1C(=O)C1C(=O)c2ccc(C(=O)c3ccc4c(c3)C(=O)C(C(=O)C3SCCN3C(=O)OC(C)(C)C)C4=O)cc2C1=O", "note": "(stereo not drawn) [Example 124, tert-butyl 2-[5-(2-{3-[(tert-butoxy)carbonyl]-1,3-thiazolidine-2-carbonyl}-1,3-dioxo-2,3-dihydro-1H-indene-5-carbonyl)-1,3-dioxo-2,3-dihydro-1H-indene-2-carbonyl]-1,3-thiazolidine-3-carboxylate]", "values": [{"measurement": "IC50", "value": 6300, "unit": "nM"}]}, {"smiles": "COCCOCCNC(=O)C1C(=O)c2ccc(Oc3ccc4c(c3)C(=O)C(C(=O)NCCOCCOC)C4=O)cc2C1=O", "note": "(stereo not drawn) [Example 291, 5-({2-[hydroxy({[2-(2-methoxyethoxy)ethyl]amino})methyl]-1,3-dioxo-2,3-dihydro-1H-inden-5-yl}oxy)-N-[2-(2-methoxyethoxy)ethyl]-1,3-dioxo-2,3-dihydro-1H-indene-2-carboxamide]", "values": [{"measurement": "inhibition at 1 µM", "value": 69, "unit": "%"}, {"measurement": "inhibition at 3 µM", "value": 100, "unit": "%"}, {"measurement": "IC50", "value": 1290, "unit": "nM"}]}, {"smiles": "O=C(c1ccc2c(c1)C(=O)C(C(=O)Nc1ccc(I)cc1)C2=O)c1ccc2c(c1)C(=O)C(C(=O)Nc1ccc(I)cc1)C2=O", "note": "(stereo not drawn) [Example 105, N-(4-iodophenyl)-5-{2-[(4-iodophenyl)carbamoyl]-1,3-dioxo-2,3-dihydro-1H-indene-5-carbonyl}-1,3-dioxo-2,3-dihydro-1H-indene-2-carboxamide]", "values": [{"measurement": "IC50", "value": 2800, "unit": "nM"}]}, {"smiles": "COc1ccc(NC(=O)C2C(=O)c3ccc(C(=O)c4ccc5c(c4)C(=O)C(C(=O)Nc4ccc(OC)cc4OC)C5=O)cc3C2=O)c(OC)c1", "note": "(stereo not drawn) [Example 96, N-(2,4-dimethoxyphenyl)-5-{2-[(2,4-dimethoxyphenyl)carbamoyl]-1,3-dioxo-2,3-dihydro-1H-indene-5-carbonyl}-1,3-dioxo-2,3-dihydro-1H-indene-2-carboxamide]", "values": [{"measurement": "inhibition at 5 µM", "value": 36, "unit": "%"}, {"measurement": "inhibition at 10 µM", "value": 70, "unit": "%"}]}, {"smiles": "CC(C)CCCC(=O)C1C(=O)c2ccc(C(c3ccc4c(c3)C(=O)C(C(=O)CCCC(C)C)C4=O)(C(F)(F)F)C(F)(F)F)cc2C1=O", "note": "(stereo not drawn) [Example 194, 5-{1,1,1,3,3,3-hexafluoro-2-[2-(5-methylhexanoyl)-1,3-dioxo-2,3-dihydro-1H-inden-5-yl]propan-2-yl}-2-(5-methylhexanoyl)-2,3-dihydro-1H-indene-1,3-dione]", "values": [{"measurement": "IC50", "value": "~1500", "unit": "nM"}]}, {"smiles": "O=C(O)CCCC(=O)C1C(=O)c2ccc(-c3ccc4c(c3)C(=O)C(C(=O)CCCC(=O)O)C4=O)cc2C1=O", "note": "(stereo not drawn) [Example 227, 5-[2′-(4-carboxybutanoyl)-1,1′,3,3′-tetraoxo-1H,1′H,2H, 2′H,3H,3′H-[5,5′-biinden]-2-yi]-5-oxopentanoic acid]", "values": [{"measurement": "IC50", "value": 1800, "unit": "nM"}]}, {"smiles": "O=C(Cc1ccccc1)C1C(=O)c2ccc(S(=O)(=O)c3ccc4c(c3)C(=O)C(C(=O)Cc3ccccc3)C4=O)cc2C1=O", "note": "(stereo not drawn) [Example 137, 5-{[1,3-dioxo-2-(2-phenylacetyl)-2,3-dihydro-1H-inden-5-yl]sulfonyl}-2-(2-phenylacetyl)-2,3-dihydro-1H-indene-1,3-dione]", "values": [{"measurement": "inhibition at 5 µM", "value": 80, "unit": "%"}, {"measurement": "inhibition at 10 µM", "value": 85, "unit": "%"}, {"measurement": "IC50", "value": 6000, "unit": "nM"}]}, {"smiles": "C[C@@H](C(=O)C1C(=O)c2ccc(S(=O)(=O)c3ccc4c(c3)C(=O)C(C(=O)[C@H](C)N(C)C(=O)OC(C)(C)C)C4=O)cc2C1=O)N(C)C(=O)OC(C)(C)C", "note": "(stereo partly drawn) [Example 156, tert-butyl N-[(2S)-1-[5-({2-[(2S)-2-{[(tert-butoxy)carbonyl](methyl)amino}propanoyl]-1,3-dioxo-2,3-dihydro-1H-inden-5-yl}sulfonyl)-1,3-dioxo-2,3-dihydro-1H-inden-2-yl]-1-oxopropan-2-yl]-N-methylcarbamate]", "values": [{"measurement": "inhibition at 5 µM", "value": 94, "unit": "%"}, {"measurement": "inhibition at 10 µM", "value": 100, "unit": "%"}, {"measurement": "IC50", "value": 6300, "unit": "nM"}]}, {"smiles": "O=C(c1ccc2c(c1)C(=O)C(C(=O)C1CCCCC1)C2=O)c1ccc2c(c1)C(=O)C(C(=O)C1CCCCC1)C2=O", "note": "(stereo not drawn) [Example 287, 2-cyclohexanecarbonyl-5-(2-cyclohexanecarbonyl-1,3-dioxo-2,3-dihydro-1H-indene-5-carbonyl)-2,3-dihydro-1H-indene-1,3-dione]", "values": [{"measurement": "inhibition at 1 µM", "value": 5, "unit": "%"}, {"measurement": "inhibition at 3 µM", "value": 31, "unit": "%"}, {"measurement": "IC50", "value": 3000, "unit": "nM"}]}, {"smiles": "COc1ccc(NC(=O)C2C(=O)c3ccc(S(=O)(=O)c4ccc5c(c4)C(=O)C(C(=O)Nc4ccc(OC)cc4OC)C5=O)cc3C2=O)c(OC)c1", "note": "(stereo not drawn) [Example 94, N-(2,4-dimethoxyphenyl)-5-({2-[(2,4-dimethoxyphenyl)carbamoyl]-1,3-dioxo-2,3-dihydro-1H-inden-5-yl}sulfonyl)-1,3-dioxo-2,3-dihydro-1H-indene-2-carboxamide]", "values": [{"measurement": "inhibition at 5 µM", "value": 33, "unit": "%"}, {"measurement": "inhibition at 10 µM", "value": 62, "unit": "%"}]}, {"smiles": "O=C(O)CC(=O)C1C(=O)c2ccc(S(=O)(=O)c3ccc4c(c3)C(=O)C(C(=O)CC(=O)O)C4=O)cc2C1=O", "note": "(stereo not drawn) [Example 404, 3-(5-{[2-(2-carboxyacetyl)-1,3-dioxo-2,3-dihydro-1H-inden-5-yl]sulfonyl}-1,3-dioxo-2,3-dihydro-1H-inden-2-yl)-3-oxopropanoic acid]", "values": [{"measurement": "inhibition at 1 µM", "value": 24, "unit": "%"}, {"measurement": "inhibition at 3 µM", "value": 28, "unit": "%"}]}, {"smiles": "O=C(NCC1CCOC1)C1C(=O)c2ccc(S(=O)(=O)c3ccc4c(c3)C(=O)C(C(=O)NCC3CCOC3)C4=O)cc2C1=O", "note": "(stereo not drawn) [Example 362, 5-[(1,3-dioxo-2-{[(oxolan-3-yl)methyl]carbamoyl}-2,3-dihydro-1H-inden-5-yl)sulfonyl]-1,3-dioxo-N-[(oxolan-3-yl)methyl]-2,3-dihydro-1H-indene-2-carboxamide]", "values": [{"measurement": "inhibition at 1 µM", "value": 33, "unit": "%"}, {"measurement": "inhibition at 3 µM", "value": 53, "unit": "%"}]}, {"smiles": "CC[C@H](C)[C@H](NC(=O)C1C(=O)c2ccc(S(=O)(=O)c3ccc4c(c3)C(=O)C(C(=O)N[C@H](C(=O)OC)[C@@H](C)CC)C4=O)cc2C1=O)C(=O)OC", "note": "(stereo partly drawn) [Example 333, methyl (2S,3S)-2-({5-[(2-{[(2S,3S)-1-methoxy-3-methyl-1-oxopentan-2-yl]carbamoyl}-1,3-dioxo-2,3-dihydro-1H-inden-5-yl)sulfonyl]-1,3-dioxo-2,3-dihydro-1H-inden-2-yl}formamido)-3-methylpentanoate]", "values": [{"measurement": "inhibition at 1 µM", "value": 15, "unit": "%"}, {"measurement": "inhibition at 3 µM", "value": 21, "unit": "%"}]}]}
